Experimental data: patent US11015179B2, “Peptide having anti-viral effect and composition containing same” (priority 2015, dated 2021)

Tests used:
HBV [1] = assay: HBsAg ELISA in whole HBV W4P genome-transfected HepG2 cell line; assay type: cell-based, hepatitis B virus; conditions: 48 hours
HBV [2] = assay: Virion production (real-time PCR of HBV DNA) in W4P-transfected HepG2 cell line; assay type: cell-based, hepatitis B virus
Experimental: (§1) To observe the potential for virion proliferation of whole HBV containing W4P, virion DNA was extracted from the entire supernatant while the medium was changed every 24 hours by the above-described method, and subjected to real-time quantitative PCR using a Quantitech SYBR Green Master-Mix kit (Qiagen). The entire supernatant was centrifuged using an ultracentrifuge equipped with an SW28 swing rotor at 20,000 rpm for 2 hours to precipitate the virus, and the precipitated viral pellets were suspended with 200 μl of sterilized DW. […] Real-time PCR was performed at 40 cycles of 5 min at 95° C., 15 sec at 94° C., and 15 sec at 60° C. using the Exicycler™ 96 Real-Time Quantitative Thermal Block System (Bioneer Co., Korea), and the temperature was increased from 53° C. to 90° C. by modulating to 0 sec at 95° C., 30 sec at 53° C. and modulating by 0.1° C. per second to analyze a melting curve.
To observe the virion production in the supernatant after the inhibition of HBsAg secretion by the PEP1 peptide was observed, virions were collected from the supernatant obtained by the above-described method using PEG 6000, and HBV DNA was obtained using a virus DNA prep kit (Intron, Korea), and then quantified by real-time PCR. […]

HBV [3] = assay: Virion production (real-time PCR of HBV DNA) in W4P-transfected Huh7 cell line; assay type: cell-based, hepatitis B virus; conditions: Huh7, 10 μM, 48 hours
Experimental: as §1
To observe the virion production in the supernatant after the inhibition of HBsAg secretion by the PEP1 peptide was observed, virions were collected from the supernatant obtained by the above-described method using PEG 6000, and HBV DNA was obtained using a virus DNA prep kit (Intron, Korea), and then quantified by real-time PCR.

IL-6 = IL-6 ELISA in culture supernatant of W4P-transfected Huh7 cell line; assay type: cell-based, human; conditions: Huh7, 10 μM, 48 hours
Experimental: It has been reported that HBV preS1 W4P variants are closely related to production of IL-6, which is an inflammation regulatory cytokine. Therefore, to observe an anti-inflammatory effect of PEP1 in IL-6-induced cell lines, 48 hours after the whole HBV W4P genome was injected into HepG2 and Huh7 cell lines which were then treated with 10 μM PEP1 and 10 μM 3TC, respectively, IL-6 levels in the culture supernatants were observed through ELISA.

HBV [4] = assay type: in vivo, mice; conditions: caudal vein twice a week; PEP1 50 μg/kg, 3TC 500 μg/kg
Experimental: HBV transgenic mice were prepared by injecting a 1.1-fold HBV base sequence comprising a full open reading frame (ORF) into the fertilized eggs of the mice through microinjection. The base sequence of HBV used in the research was obtained using a pHY92-W4P plasmid. The pHY92-W4P plasmid was digested with EcoRi before injection into the fertilized eggs of the mice, and finally a base sequence of 3.9 kb in length was used for microinjection. Produced subjects were selected through PCR using a specific sequence of HBsAg. PCR-positive subjects were selected according to the concentrations of serum HBsAg and HBeAg, and finally used as PCR-positive, HBsAg-positive, and HBeAg-positive mice in the study. These mice were backcrossed with C57BL/6 mice to produce heterologous HBV transgenic mice.
HBsAg levels in the HBV-transgenic mice were determined using an HBsAg ELISA kit (BIOKIT, Germany). To quantify HBV titers, total DNA was extracted and confirmed by real-time PCR.
In addition, HBV virion DNA was obtained from mouse serum and subjected to real-time PCR.

HSP 90, SOD, ERK, JAK2 = assay: Liver protein expression (western blotting) in whole HBV W4P genome-transgenic mice; assay type: in vivo; conditions: week 8; PEP1 50 μg/kg, 3TC 500 μg/kg
Experimental: To observe a change in protein expression affecting the antiviral effect by the PEP1 peptide, transgenic mice prepared by injecting the whole HBV W4P variant genome were used. The PEP1 peptide was injected into the caudal vein of the mouse at a concentration of 50 μg/kg twice a week. As a control group, 500 μg/kg of 3TC was injected like the PEP1 peptide. On week 8, the whole blood was collected from the mouse, and proteins were extracted from the liver of the mouse and subjected to western blotting to observe expression of the proteins.

immune cells = assay: Distribution of immune cells (FACS) in whole HBV W4P genome-transgenic mice; assay type: in vivo; conditions: 3TC
Experimental: PEP1 is an HLA Class II-binding peptide derived from telomerase, and a 16-amino acid peptide triggering cytotoxic T-cell and helper T-cell immune responses. Therefore, to observe a change in the distribution of renal immune cells by the PEP1 peptide, transgenic mice were prepared by injecting the whole HBV W4P variant genome, on week 4, the whole blood was collected from the mice, and immune cells were isolated from the kidneys of the mice and then stained with lymphocyte markers (B cells (CD19B), CD4, CD8, NK1.1 cells) and myeloid cell markers (DC (CD11c), a macrophage marker (F4/80), a neutrophil marker (Ly-6G), a monocyte marker (Gr1)) according to an extracellular cell surface staining method for FACS analysis.

INFγ = INFγ activity of immune cells (FACS) in whole HBV W4P genome-transgenic mice; assay type: in vivo; conditions: 8 weeks; PEP1 50 μg/kg, 3TC 500 μg/kg; HBsAg stimulation 72 hours
Experimental: INF, which is a hormone-like cytokine, is secreted from immune cells against a virus. INFs are present in three types such as α, β and γ, and among these, INFγ is known to be critical for inhibiting the hepatitis B virus (HBV) in humans. Therefore, to observe the activity of INFγ, as an immune response, by the PEP1 peptide, 8 weeks after 50 μg/kg of the PEP1 peptide and 500 μg/kg of 3TC were injected into the caudal vein of each of transgenic mice prepared by injection of the whole HBV W4P variant genome twice a week, the whole blood was collected and a kidney was extracted from the mouse, and then immune cells were isolated and treated with HBsAg for stimulation. Seventy two hours after the stimulation, the INFγ cytokine was accumulated in cells by Brefeldin A and stained by an intracellular staining method for FACS analysis.

macrophages = assay: Differentiation of macrophages (FACS) in whole HBV W4P genome-transgenic mice; assay type: in vivo; conditions: eight weeks; PEP1 50 μg/kg, 3TC 500 μg/kg; vs PBS
Experimental: Therefore, to observe if the PEP1 peptide is able to differentiate macrophages to M1, eight weeks after PBS, 50 μg/kg of the PEP1 peptide and 500 μg/kg of 3TC were injected into the caudal vein of each of transgenic mice prepared by injecting the whole HBV W4P variant genome twice a week, the whole blood was collected from the mouse and a kidney of the mouse was extracted, immune cells were isolated and stained with a macrophage marker (F4/80) and M1 marker MHCII through an extracellular cell surface staining method. Afterward, FACS analysis was carried out.

HBV [5] = assay: Antiviral effect with HSP90 blockage in whole HBV wild-type genome-transfected HepG2 cell line (real-time quantitative PCR); assay type: cell-based, hepatitis B virus; conditions: HepG2, ETV 30 nM, 24 hours
Experimental: PEP1 has been known to pass through a cell membrane from the outside to the inside of the cells in a shuttle method via HSP90. To confirm if the antiviral effect is reduced in cells by blocking the HSP90 activity based on such a mechanism, in this research, a HepG2 cell line was transiently transfected with the whole HBV wild-type genome, treated with anti-GAPDH, anti-HSP (1 ug/ml, blockage of HSP90 activity) and 17-AAG (1 μM) for 1 hour, ant then with PBS (0.5%), entecavir (ETV, 30 nM) and PEP1 (5 μM) for 24 hours. Subsequently, the supernatant was collected and treated with PEG6000 to precipitate the virus, and viral DNA was extracted and subjected to real-time quantitative PCR to observe an antiviral effect. All experiments are independently performed in triplicate, and a statistical significance test was performed using one-way ANOVA through the Tukey's Multiple Comparison Test. ** p<0.05 versus PBS, and ## p<0.05 versus None.

Nc1ccn([C@@H]2CS[C@H](CO)O2)c(=O)n1 [3TC, ramivudine]
HBsAg inhibitory effect vs control group (HBV [1]; 3TC 10 μM, cell line not specified (Huh7, Huh7.5, HepG2 tested)): exhibited higher inhibitory effects than the control group
HBsAg in both pellets and supernatants (HBV [1]; HepG2, 3TC 0.01-100 μM): showed inhibitory effects according to concentration
Virions produced in the supernatant (HBV [2]; HepG2, 10 μM, 48 hours): inhibitory effect
Virion synthesis according to concentration (HBV [2]; HepG2, 3TC): has an inhibitory effect on virion synthesis according to concentration
Virions produced in the supernatant (HBV [3]): inhibitory effect
IL-6 level in culture supernatant (IL-6): no effect on production of IL-6 cytokine
Level of HBsAg in serum, reduction effect on week 8 (HBV [4]): no such effect
Level of HBsAg in serum, up to 4 weeks (HBV [4]): neither the PEP1 peptide nor 3TC showed a reduction effect
Serum virion level, inhibitory effect on week 8 (HBV [4]): approximately 52%
Serum virion level, week 4 (HBV [4]): did not show virion inhibitory effects
JAK2 phosphorylation in liver (HSP 90, SOD, ERK, JAK2): inhibited phosphorylation
Protein phosphorylation of ERK in liver (HSP 90, SOD, ERK, JAK2): inhibited phosphorylation
Distribution of immune cells (immune cells): did not have an influence on the distribution of immune cells
INFγ activity of CD4, CD8 and NK1.1 cells (INFγ): slightly increased activity
Distribution of macrophages among myeloid-derived cells (macrophages): did not show a difference
Number of cells differentiated to M1 (macrophages): did not show a difference

C=C1[C@H](CO)[C@@H](O)C[C@@H]1n1cnc2c(=O)[nH]c(N)nc21 [ETV, entecavir]
Antiviral effect in untreated cells or cells treated with GAPDH, HSP90 or 17-AAG (HBV [5]): no difference in the antiviral effect
